Experimental data: PubChem BioAssay (NCI)
Where “and” joins values, the source holds several entries; their conditions need not be identical. Equal values may be shown once.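 Test compounds were applied to cells in 96-well plates for 48 hours at 5 doses. Abbreviation: GI50, concentration required for 50% inhibition of growth. TGI: total growth inhibition.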

Assays:
Assay in all cases: NCI-60 cell line screen, 48 h
HL-60(TB) leukemia = test system: HL-60(TB) leukemia
HCT-116 colon = test system: HCT-116 colon
KM12 colon = test system: KM12 colon
UACC-62 melanoma = test system: UACC-62 melanoma
SF-295 CNS = test system: SF-295 CNS
A549 NSCLC = test system: A549 NSCLC
LOX IMVI melanoma = test system: LOX IMVI melanoma
RPMI-8226 leukemia = test system: RPMI-8226 leukemia
SR leukemia = test system: SR leukemia
HOP-92 NSCLC = test system: HOP-92 NSCLC

Compound	GI50 (HL-60(TB) leukemia)	TGI (HL-60(TB) leukemia)	GI50 (HCT-116 colon)	TGI (HCT-116 colon)	GI50 (KM12 colon)	TGI (KM12 colon)	GI50 (UACC-62 melanoma)	TGI (UACC-62 melanoma)	GI50 (SF-295 CNS)	TGI (SF-295 CNS)	GI50 (A549 NSCLC)	TGI (A549 NSCLC)	GI50 (LOX IMVI melanoma)	TGI (LOX IMVI melanoma)	GI50 (RPMI-8226 leukemia)	TGI (RPMI-8226 leukemia)	GI50 (SR leukemia)	TGI (SR leukemia)	GI50 (HOP-92 NSCLC)	TGI (HOP-92 NSCLC)
CC(C)(C)[Si](C)(C)OC1[C@@H](O[Si](C)(C)C(C)(C)C)[C@@H](CNC(=O)NC(=O)CCl)O[C@H]1n1cnc2c(NC(=O)Nc3ccccc3)ncnc21 (stereo partly specified)	0.166 µM	0.488 µM	0.719 µM	1.51 µM	1.04 µM	3.64 µM	0.793 µM	1.6 µM	0.235 µM	0.922 µM	1.19 µM	3.51 µM	0.0829 µM	0.18 µM	0.167 µM	0.682 µM	0.117 µM	0.446 µM	0.211 µM	0.9 µM
O=C1/C(=C\c2ccccn2)c2ccccc2N1c1c(Cl)cccc1Cl	3.75 µM	> 29.6 µM	1.7 µM	3.32 µM	1.69 µM	3.22 µM	1.62 µM	3.68 µM	1.96 µM	5.72 µM	2.29 µM	14.6 µM	1.68 µM	3.21 µM	2.8 µM	> 22.4 µM	5.07 µM	> 100 µM		6.28 µM
Cc1nc(N2CCC3(CC2)CO[C@@H](C)[C@H]3N)c(CO)nc1Sc1ccnc(N)c1Cl	> 100 µM	> 100 µM	59.7 µM	> 100 µM	2.21 µM	> 100 µM	> 100 µM	> 100 µM	26.6 µM	> 100 µM	> 100 µM	> 100 µM	72.4 µM	> 100 µM	49.3 µM	> 100 µM	11.9 µM	> 100 µM	0.184 µM	2.12 µM
COc1cc(CNC2c3cc4c(cc3C(c3cc(OC)c(OC)c(OC)c3)[C@H]3C(=O)OCC23)OCO4)cc(OC)c1OC (stereo partly specified)		0.515 µM		0.707 µM		0.692 µM		0.651 µM		0.677 µM		> 100 µM		> 100 µM		79.2 µM		> 100 µM		> 100 µM
COc1cccc(NC(=O)c2sc3nc4c(cc3c2N)C(=O)CCC4)c1	0.144 µM	> 100 µM	0.0745 µM	> 100 µM	0.0569 µM	> 100 µM	0.0749 µM	> 100 µM	0.0818 µM	> 100 µM	0.103 µM	> 100 µM	1.71 µM	> 100 µM	0.332 µM	> 100 µM	0.133 µM	> 100 µM	0.0482 µM	26.8 µM
NC(=O)c1cccc(Nc2nccc(Nc3cccc4[nH]ncc34)n2)c1	10.5 µM	> 25 µM	8.58 µM	> 25 µM	9.78 µM	> 25 µM	7.02 µM	> 25 µM	15.4 µM	> 25 µM	> 24 µM	> 25 µM	6.07 µM	> 18.4 µM	> 25 µM	> 25 µM	8.72 µM	> 25 µM	3 µM	12.2 µM
CN1C(=O)N[C@H]2[C@@H]3NC(=O)c4ccc(Br)n4[C@@H]3C[C@]21O	0.0324 µM	0.132 µM	0.112 µM	2.39 µM	0.191 µM	5.47 µM	0.0861 µM	1.18 µM	0.273 µM	3.21 µM	0.27 µM	4.47 µM	0.369 µM	3.37 µM	0.0831 µM	0.417 µM	0.0335 µM	0.639 µM	0.0955 µM	1.28 µM
O=C(Nc1cccc(O)c1)C(=O)C(C(=O)c1ccc(Cl)c(Cl)c1)C1OC(=O)c2ccccc21 (stereo unspecified)		36.5 µM		48.2 µM		41.4 µM		31.8 µM		62.6 µM		> 100 µM		33.8 µM		54.5 µM		26.6 µM		53.8 µM
CC1(CCC(=O)OC2CCCCC2)OCCO1		> 100 µM		> 100 µM		> 100 µM		> 100 µM		> 100 µM		> 100 µM		> 100 µM		> 100 µM		> 100 µM		> 100 µM
O=C1OC(O)C(Oc2c(Cl)cccc2Cl)=C1Cl (stereo unspecified)		50.1 µM		27.9 µM		54.1 µM		24.7 µM		33.9 µM		34.7 µM		34 µM		57 µM		54.1 µM		41.9 µM
O=C(/C=C/c1ccccc1)n1c(-c2ccc(Cl)cc2)nc2ccccc21	1.4 µM	4.88 µM	1.21 µM	2.88 µM	1.44 µM	2.93 µM	1.27 µM	2.88 µM	2.5 µM	6.46 µM	1.89 µM	7.3 µM	0.588 µM	1.91 µM	0.614 µM	3.82 µM	0.379 µM	1.88 µM	1.46 µM	3.82 µM
CCN(CC)CCCC(C)N=C(C1=C(C(=NC(C)CCCN(CC)CC)c2cccc(OC)c2)C(=O)NC1=O)c1cccc(OC)c1 (stereo unspecified)	3.66 µM	11.7 µM	0.747 µM	1.89 µM	1.81 µM	6.36 µM	7.71 µM	15 µM	1.47 µM	5.94 µM	0.966 µM	2.08 µM	0.992 µM	2.06 µM	1.23 µM	3.26 µM	1.36 µM	4.31 µM	0.993 µM	3.63 µM
C=C1CCC2C(C)(COC(=O)CC)C(OC(=O)CC)CCC2(C)C1C/C=C1/C(=O)OCC1OC(=O)CC (stereo unspecified)	1.82 µM	5.85 µM	1.14 µM	2.55 µM	1.86 µM	3.75 µM	2.23 µM	5.2 µM	1.7 µM	3.99 µM	2.03 µM	4.22 µM	1.51 µM	3.01 µM	3.77 µM	> 100 µM	1.58 µM	5.28 µM	3.03 µM	7.15 µM
Cc1sc2c(c1C)C(c1ccc(Cl)cc1)=N[C@@H](CC(=O)OC(C)(C)C)c1nnc(C)n1-2	0.118 µM and 0.0301 µM		0.44 µM and 0.311 µM	16.4 µM and 15.4 µM	2.57 µM and 0.962 µM	23.1 µM and 20.1 µM	0.107 µM and 0.0685 µM	20.3 µM and 15.8 µM	0.365 µM and 0.182 µM	18.2 µM and 15.5 µM	0.73 µM and 0.312 µM	21.8 µM and 15.3 µM	0.22 µM and 0.0673 µM	11.2 µM and 13.9 µM	0.142 µM and 0.0397 µM	2.92 µM and 0.477 µM	0.229 µM and 0.0451 µM	18.7 µM and 17.1 µM	0.0319 µM and 0.0183 µM	0.39 µM and 0.29 µM
CC/C(CC(=O)CCC(=O)Nc1ccccc1[N+](=O)[O-])=N/NC(=O)C[n+]1ccccc1		> 100 µM		> 100 µM		> 100 µM		> 100 µM		> 100 µM		> 100 µM		> 100 µM		> 100 µM		> 100 µM		> 100 µM
O=C1C=CC(=O)c2cc(Sc3ccccc3)c(=O)ccc21		1.79 µM		42.6 µM		34.4 µM		30.4 µM		27.6 µM		39.5 µM		27.7 µM		14.9 µM		5.96 µM		> 52.7 µM
FC(F)(F)C1(Br)C(c2ccccc2)=C1c1ccccc1		> 100 µM		20.2 µM		29.4 µM		30.8 µM		28.7 µM		85.7 µM		28 µM		> 100 µM		78.5 µM		32.2 µM
COc1ccc(-c2c3c(n(C4OC(COC(C)=O)C(OC(C)=O)C(OC(C)=O)C4OC(C)=O)c(=S)c2C#N)CC(C)(C)CC3=O)cc1 (stereo unspecified)	18.4 µM and 47.6 µM	42.5 µM and > 100 µM	41.8 µM and > 100 µM	> 100 µM		> 100 µM		> 100 µM		> 100 µM		> 100 µM		97.5 µM and 77.2 µM		72.1 µM and > 100 µM		74.7 µM and > 100 µM	32.7 µM and > 100 µM	> 100 µM
CN1C(=O)C(=O)c2cc3c(c4c2c1cc1ccccc14)OCO3		> 100 µM		> 100 µM		58.9 µM		38.5 µM		> 100 µM		> 100 µM		97.2 µM		> 100 µM		54.8 µM		> 100 µM
Cc1cc(CC(C)CC(C)(C)C)n(O)c(=O)c1 (stereo unspecified) (tested in a mixture with another compound)	0.189 µM	0.525 µM	0.406 µM	13.2 µM	0.602 µM	21.3 µM	0.305 µM	1.08 µM	0.447 µM	18.5 µM	0.5 µM	> 49.7 µM	0.312 µM	10.9 µM	0.365 µM	8.06 µM	0.286 µM	2.97 µM	0.174 µM	1.88 µM
CN(C)c1nc(=Nc2cccc(Cl)c2)ss1		23 µM		24.2 µM		43.7 µM		23.4 µM		56.5 µM		76.4 µM		27.8 µM		17.5 µM		34 µM		49.4 µM
COc1cccc(C2c3cc4c(cc3OC(N3CCCC3)C2C)OCO4)c1O (stereo unspecified)		31.5 µM		35 µM		19.8 µM		43.7 µM		15.4 µM		> 67.1 µM		> 66.2 µM		27.9 µM		25 µM		41.5 µM
CCOC(=N)/C(=C1\OC(N)=C(c2ccc(Cl)cc2)C1=O)c1ccc(Cl)cc1		42 µM		30.7 µM		34.4 µM		29 µM		55.8 µM		66.7 µM		28.1 µM		47.6 µM		56.5 µM		34 µM
O=C(O)C(Cl)(c1ccccc1)c1ccccc1		> 100 µM		> 100 µM		> 100 µM		> 100 µM		> 100 µM		> 100 µM		> 100 µM		> 100 µM		> 100 µM		> 100 µM
CC(C)(C)CC(C)(C)NCc1cc(C(C)(C)C)cc(CNC(C)(C)CC(C)(C)C)c1O	2.51 µM	8.04 µM	2.1 µM	5.78 µM	3.32 µM	11.2 µM	3.34 µM	12.3 µM	3.23 µM	11.7 µM	3.97 µM	14.7 µM	1.6 µM	3.1 µM	2.46 µM	6.49 µM	2.14 µM	5.44 µM	0.548 µM	4.2 µM
Cc1cc(C)c(NC(=S)NC(=O)c2ccccc2)cc1C		> 100 µM		> 100 µM		> 100 µM		> 100 µM		> 100 µM		> 100 µM		> 100 µM		> 100 µM		> 100 µM		> 100 µM
COc1cccc(/C=C/C(=O)c2ccc(Cl)cc2Cl)c1	8.9 µM	> 50 µM	4.94 µM	19.1 µM	17.2 µM	> 50 µM	8.06 µM	15.5 µM	28.2 µM	> 50 µM	10.5 µM	22.7 µM	15.3 µM	> 50 µM	1.1 µM	3.86 µM	0.833 µM	> 50 µM	0.0134 µM	9.44 µM
